Tests used:
[1] = system: HT-29; test: Proliferation assay, HT-29 cells; format: cell-based, human
[2] = system: various cell lines; test: Dose response studies in various cell lines, absence and presence of semicarbazide; format: cell-based; conditions: semicarbazide 0.5 mM
Protocol: (§1) Proliferation assay: cells at a density of 3-5×10^4 cells/ml in 200 μl medium supplemented with 10% FCS were seeded in tissue culture 96-well plates for 24 hours, and were then exposed for 72 hours to a novel derivative of a chemotherapeutic agent (in quadruplicate) as specified. After 3 days, the cells were rinsed with PBS, and fixed with ethanol (70%) for 30 minutes. The ethanol was thereafter discarded, 200 μl of 10 μg/ml HOECHST fluorescent dye (Sigma) solubilized in PBS were added and the fluorescence was measured at 390-460 nm with a FluoStar fluorometer. MTT solution (10 ml of 5 mg/ml MTT (Sigma) in PBS) was added, and the plate was incubated for 3 hours. Formazan crystals were dissolved with 140 ml of 0.04 HCl-isopropanol. The optical density of the wells was measured with a microplate reader at 540 nm.
Semicarbazide sensitive amine oxidase is a source of formaldehyde and is therefore a marker for the effect of formaldehyde. It has been shown that semicarbazide traps formaldehyde and reduces its concentration inside the cell (Nudelman et al. J. Med. Chem., 2005, 48, 1047-1054). Thus, the critical role of formaldehyde can be confirmed by reversal of formaldehyde-mediated effects by the addition of semicarbazide.
Tables 3 and 4 below, as well as FIGS. 7A, 7B and 8A-8D present the dose response studies performed with various cell lines in the absence and presence of semicarbazide, the formaldehyde trapping agent.

[3] = system: colon cancer cells (LS-1034 and HT-29); test: Survival of colon cancer cells (both lines); format: cell-based, human
Protocol: Cells: The human breast cancer cell lines MCF-7 and MCF-7 DX, were obtained from Dr. R. Supino (Laboratorio Oncologia, Milano, Italy); the murine 3LLD122 highly metastatic Lewis lung carcinoma cell line was obtained from Dr. Eisenbach L, the Weizmann Inst., Israel. […]
as §1, with “After 3 days, the cells were rinsed with PBS, and fixed with ethanol (70%) for 30 minutes.” left out, “MTT solution (10 ml of 5 mg/ml MTT (Sigma) in PBS) was added, and the plate was incubated for 3 hours. Formazan crystals were dissolved with 140 ml of 0.04 HCl-isopropanol.” left out
(§2) IC50 and IC90 values were determined from the best-fitted curve where the percentages of survival were 50 or 90 respectively.

[4] = system: MES SA DXS; test: Proliferation assay, MES SA DXS cells; format: cell-based, human; conditions: MES SA DXS
Text: (§3) Cells: The human breast cancer cell lines MCF-7 and MCF-7 DX, were obtained from Dr. R. Supino (Laboratorio Oncologia, Milano, Italy); the murine 3LLD122 highly metastatic Lewis lung carcinoma cell line was obtained from Dr. Eisenbach L, the Weizmann Inst., Israel. The following cell lines were purchased from the ATCC, USA: CT-26, an N-nitroso-N-methylurethane-(NNMU) induced murine (BALB-C) colon carcinoma; Panc02, a mouse (C57/Bl) pancreas adenocarcinoma; HT-49, a human colorectal adenocarcinoma; LS1034, a multidrug resistant human colorectal carcinoma; BxPC-3 human pancreas adenocarcinoma; MES-SA and MES-SA-DXS, human uterine sarcoma sensitive and multidrug resistant, respectively; and Human prostate carcinoma 22RV1, a subclone of CWR22 cells.
(§4) The cells were maintained in DMEM growth medium supplemented with 10% heat inactivated fetal calf serum, 2 mM glutamine, penicillin (250 units/ml) and streptomycin (125 μg/ml) in a humidified 5% CO2/air atmosphere at 37° C.
as §1, §2

[5] = system: histone acetylation; test: Histone acetylation in treated cells; format: cell-based
Protocol: Western blot analysis: Whole cell tissue lysates or acid extracted histones were solubilized in a 4-fold concentrated sample buffer and […] protein samples were separated by SDS-PAGE. The proteins were transferred to a nitrocellulose membrane (Schleicher & Schuell, Germany) and probed with the primary antibodies as indicated, followed by incubation with an HRP-goat anti-rabbit IgG secondary antibody. Visualization of the bound HRP-goat anti-rabbit IgG was performed using the enhanced chemiluminescence that was done using Western Blotting Luminol reagent (cat No. SC-2048, Santa Cruz, Calif., US). Equal amounts of reagent A and B were mixed, and added to the nitrocellulose membrane for 1 minute. Excess liquid was absorbed and the membrane was exposed for 5 minutes to Chemiluminescence BioMax light film (cat. No. 868 9358, Kodak, USA). The intensity of the bands was measured with a Versa Doc instrument with Quantityl program (Bio-Rad, USA). The fold increase of each specific protein was determined by the ratio of band intensities of treated and untreated cells, normalized to loading control (actin or histone H3).

[6] = system: sensitive and resistant uterine cancer cells (MES-SA, MES-SA DXS); test: Proliferation/survival, sensitive and resistant uterine cancer cells (both lines); format: cell-based, human
Text: as §3, §1, §2

[7] = system: MES SA; test: Proliferation assay, MES SA cells; format: cell-based, human
Text: as §3, §4, §1, §2

[8] = system: BXPC-3; test: Proliferation assay, BXPC-3 cells; format: cell-based, human
Text: as §3, §4, §1, §2

[9] = system: Panc 02; test: Proliferation assay, Panc 02 cells; format: cell-based; conditions: Mus musculus, Panc02
Text: as §3, §4, §1, §2

[10] = system: colon carcinoma cells; test: Viability of colon carcinoma cells (FIG. 12); format: cell-based
Protocol: as §1
Apoptosis assay: Cells (2×10^5 cells/ml) were seeded in 24-well plates and incubated with a derivative of a chemotherapeutic agent according to the present embodiments, as specified, for 24 hours. The cells were thereafter collected and double-stained with annexin V-FITC and propidium iodide, according to the manufacturer's instructions (MBL, Japan). Alive, apoptotic and total dead cells were quantitated by flow cytometry using a FACS calibur cytometer (Becton Dickinson).

[11] = system: LS-1034; test: Proliferation assay, LS-1034 cells; format: cell-based, human
Text: as §3, §4, §1, §2

[12] = system: CT-26; test: Proliferation assay, CT-26 cells; format: cell-based, murine; conditions: CT-26
Text: as §3, §4, §1, §2

[13] = system: HT-29 human colon carcinoma; test: Xenograft flank colon carcinoma model, HT29; format: in vivo; conditions: nude mice
Protocol: Xenograft flank colon carcinoma models: Eight weeks old, male CD1 nude mice (Harlan, Israel) were inoculated sc in the flanks with 5×10^6 HT29 or LS1034 cells. When tumor volume reached 50-100 mm^3, treatment with derivatives of chemotherapeutic agents according to the present embodiments commenced and was given by gavage five times a week for the duration of the experiment at the specified doses. Tumor volume (determined by caliper) and body weights were measured twice weekly. Tumor volume was measured (mm) using the formula for an ellipsoid sphere: Length×Width^2/2=Volume (mm)^3 This commonly used formula was also used to calculate tumor weight, assuming unit density (1 mm^3=1 mg). Serum PSA or CEA: […] At the end of the experiment blood samples were drawn from the eyes of mice (anesthetized slightly by inhalation of ether) or from the hearts of sacrificed animals.

[14] = Homo sapiens, tegafur value calculated by extrapolation from the best fitted curve

Compound	IC90 ([1]; Homo sapiens, HT-29)	IC50 ([1]; Homo sapiens, HT-29, HT-29)	IC50 ([4]; Homo sapiens)	maximal cell killing achieved [6]	IC50 ([7]; Homo sapiens)	IC50 ([8]; Homo sapiens)	IC90 ([8]; Homo sapiens)	IC50 [9]	IC90 [9]	IC90 ([11]; Homo sapiens, LS-1034)	IC50 ([11]; Homo sapiens, LS-1034, LS-1034)	IC50 ([12]; Mus musculus, CT26)	IC90 ([12]; Mus musculus, CT26)	further results
CCCC(=O)OCn1c(=O)c(F)cn(C2CCCO2)c1=O [AN-420, 5-fluoro-2,3-dihydro-3-((R)-tetrahydrofuran-2-yl)-2,6-dioxopyrimidin-1(6H)-yl)methyl butyrate]	84 ± 21 µM	35 ± 5 µM	54 ± 5 µM	100%	79 ± 22 µM	74 ± 4 µM	141 ± 5 µM	46 ± 3 µM	149 ± 19 µM	79 ± 23 µM	42 ± 7 µM	27 ± 4 µM	76 ± 14 µM	IC90 ([1]; HT-29, + SC 500 μM): 138 ± 30 µM; IC50 ([1]; HT-29, + SC (semicarbazide) 500 μM): 51 ± 5 µM; reduction of cell killing by co-treatment with semicarbazide [2]: substantially reduced the cell killing; fold more potent than tegafur, based on IC90 values [3]: ≥ 10 fold; IC90 ([4]; Homo sapiens): 95 ± 8 µM; IC50 ([4]; + SC 500 μM): 115 ± 29 µM; IC90 ([4]; + SC 500 μM): 312 ± 116 µM; histone acetylation in treated cells [5]: increase of histone acetylation; IC50 ([7]; + SC 500 μM): 92 ± 14 µM; IC90 ([7]; + SC 500 μM): 214 ± 80 µM; IC90 ([7]; Homo sapiens): 177 ± 77 µM; IC50 ([8]; + SC 500 μM): 88 ± 6 µM; IC90 ([8]; + SC 500 μM): 280 ± 36 µM; effect on cancer cell viability (% of control) [10]: significantly more effective than tegafur; IC50 ([11]; LS-1034, + SC 500 μM): 52 ± 8 µM; IC90 ([11]; LS-1034, + SC 500 μM): 105 ± 29 µM; IC50 ([12]; + SC 500 μM): 34 ± 10 µM; IC90 ([12]; + SC 500 μM): 94 ± 30 µM
O=c1[nH]c(=O)n(C2CCCO2)cc1F (stereo not drawn) [Tegafur, tegafur, reference compound]	747 ± 52 µM	201 ± 15 µM	405 ± 20 µM	80%	337 ± 20 µM	172 ± 21 µM	688 ± 113 µM	179 ± 25 µM	637 ± 66 µM	1600 ± 240 µM	519 ± 93 µM	136 ± 19 µM	411 ± 23 µM	IC90 [4, 14]: 1470 ± 96 µM; CEA level in serum [13]: higher; tumor growth inhibition ([13]; P<<0.001): substantially inhibited tumor growth; IC90 [7, 14]: 1200 ± 97 µM
